Experimental findings from PMC9945734 (BMC Medicine, 2023) are described below.

This test has as its system PC-3-KQ cells. Description: 3D spheroid invasion assay and screening of FDA-approved drugs. The class given is cell-based, human. On the set-up: activity: dose or concentration left out as unconfirmed. In a few lines:
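Cells were clustered into spheroids by centrifugation and grown 3 days, then embedded in matrigel-medium containing drug on day 4 and cultured another 3 days. Drugs were screened at 10 μM first, then at 0–10 μM, in duplicate wells. Invasion area is total area minus core sphere area from phase-contrast images.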

[1] abbreviates: Homo sapiens, 72 h, 0.01 μM (first column so headed), secondary screening of 87 hit compounds (Table S1), compared to vehicle control, read-out: Invasion rates (%) of each drug’s multiple concentrations.
The mark [2] stands for this setting: Homo sapiens, 72 h, 0.1 μM, secondary screening of 87 hit compounds (Table S1), compared to vehicle control, read-out: Invasion rates (%) of each drug’s multiple concentrations.
Where [3] appears, read: Homo sapiens, 72 h, 1 μM, secondary screening of 87 hit compounds (Table S1), compared to vehicle control, read-out: Invasion rates (%) of each drug’s multiple concentrations.
The mark [4] stands for this setting: Homo sapiens, 72 h, 10 μM, secondary screening of 87 hit compounds (Table S1), compared to vehicle control, read-out: Invasion rates (%) of each drug’s multiple concentrations.
[5] abbreviates: 0.01 μM (first column so headed), secondary screening of 87 hit compounds (Table S1), compared to vehicle control.
Setting [6] is: 0.01 μM (second column so headed), secondary screening of 87 hit compounds (Table S1), compared to vehicle control.
[7] abbreviates: 0.1 μM, secondary screening of 87 hit compounds (Table S1), compared to vehicle control.
[8] abbreviates: 1 μM, secondary screening of 87 hit compounds (Table S1), compared to vehicle control.
[9] abbreviates: 10 μM, secondary screening of 87 hit compounds (Table S1), compared to vehicle control.
Setting [10] is: Homo sapiens, 72 h, 0.01 μM (second column so headed), secondary screening of 87 hit compounds (Table S1), compared to vehicle control, read-out: Invasion rates (%) of each drug’s multiple concentrations.
The mark [11] stands for this setting: Homo sapiens, 72 h, 0.01 μM (first column so headed), third screening of 25 hit compounds (Table S2), compared to vehicle control, read-out: Invasion rates (%) of each drug’s multiple concentrations.
Where [12] appears, read: Homo sapiens, 72 h, 0.01 μM (second column so headed), third screening of 25 hit compounds (Table S2), compared to vehicle control, read-out: Invasion rates (%) of each drug’s multiple concentrations.
Setting [13] is: Homo sapiens, 72 h, 0.1 μM, third screening of 25 hit compounds (Table S2), compared to vehicle control, read-out: Invasion rates (%) of each drug’s multiple concentrations.
Where [14] appears, read: Homo sapiens, 72 h, 1 μM, third screening of 25 hit compounds (Table S2), compared to vehicle control, read-out: Invasion rates (%) of each drug’s multiple concentrations.
Setting [15] is: Homo sapiens, 72 h, 10 μM, third screening of 25 hit compounds (Table S2), compared to vehicle control, read-out: Invasion rates (%) of each drug’s multiple concentrations.

Read-outs that look alike come from different tables or passages of the source. Where only a bound is given, the exact number is not on record here.

On to `NC(=O)N/N=C/c1ccc([N+](=O)[O-])o1` [Nitrofurazone], for which, under setting [1], the activity at 0.01 µM is 94.8%. Moreover, the activity at 0.1 µM under setting [2] stood at 80.4%. The activity at 1 µM under setting [3] came out at 70.7%. For the same molecule, the activity at 10 µM under setting [4] stood at 6.3%. Further, the activity (Homo sapiens, 72 h, secondary screening of 87 hit compounds (Table S1), compared to vehicle control, read-out: Invasion rates (%) of each drug’s multiple concentrations) is 98.8%.

Regarding `CCCCCCCCN=c1ccn(CCCCCCCCCCn2ccc(=NCCCCCCCC)cc2)cc1.Cl.Cl` [Octenidine (dihydrochloride)], the “Invasion rates (%) of each drug’s multiple concentrations (μM)” value (from here on “Invasion rates (%)”) is 97.90% under setting [5]; 100.69% under setting [6]; 97.53% under setting [7]; 95.54% under setting [8]; 46.51% under setting [9].

Consider `Cc1ncc([N+](=O)[O-])n1CC(O)CCl` (stereo not shown) [Ornidazole (Levo-)], for which the “Invasion rates (%)” value by setting is: under setting [5], 90.43%; under setting [6], 93.59%; under setting [7], 87.04%; under setting [8], 71.01%; under setting [9], 4.84%.

As to `C=CC(=O)Nc1cc(Nc2nccc(-c3cn(C)c4ccccc34)n2)c(OC)cc1N(C)CCN(C)C` [Osimertinib], the activity at 0.01 µM reads like this: under setting [1], 89%; under setting [10], 98.8%. The activity at 0.1 µM under setting [2] amounted to 86.4%. Further, under setting [3], the activity at 1 µM amounted to 83.8%. Besides, the activity at 10 µM under setting [4] came to 5.6%.

As for `CN(C)[C@@H]1C(O)=C(C(N)=O)C(=O)[C@@]2(O)C(O)=C3C(=O)c4c(O)cccc4[C@@](C)(O)[C@H]3[C@H](O)[C@@H]12` [Oxytetracycline], the activity at 0.01 µM came out at 84.1% under setting [1] and 91% under setting [10]. Moreover, the activity at 0.1 µM under setting [2] was 82.2%. The activity at 1 µM under setting [3] is 71.3%. Besides, the activity at 10 µM under setting [4] stood at 8.26%.

Consider `CNc1ncc(-c2ccc3c(=O)c(C(=O)O)cn(C4CC4)c3c2C)cc1C` [Ozenoxacin], for which the “Invasion rates (%)” value is 96.05% under setting [5]; 100.15% under setting [6]; 94.32% under setting [7]; 88.16% under setting [8]; 4.14% under setting [9].

`COc1cccc2c1C(=O)c1c(O)c3c(c(O)c1C2=O)C[C@@](O)(C(=O)CO)C[C@@H]3O[C@H]1C[C@H](N)[C@H](O[C@@H]2CCCCO2)[C@H](C)O1.Cl` [Pirarubicin (Hydrochloride)]: the “Invasion rates (%)” value under setting [5] was 87.28%; the “Invasion rates (%)” value under setting [6] was determined as 91.46%; the “Invasion rates (%)” value under setting [7] was 86.00%; the “Invasion rates (%)” value under setting [8] was found to be 81.69%; the “Invasion rates (%)” value under setting [9] is 10.50%.

As for `Cc1ccc(C(=O)Nc2ccc(CN3CCN(C)CC3)c(C(F)(F)F)c2)cc1C#Cc1cnc2cccnn12` [Ponatinib], the activity at 0.01 µM reads like this: (Homo sapiens, 72 h, read-out: Invasion rates (%) of each drug’s multiple concentrations (μM), 0.01 μM (first column so headed), secondary screening of 87 hit compounds (Table S1), compared to vehicle control) 94.4%; (Homo sapiens, 72 h, read-out: Invasion rates (%) of each drug’s multiple concentrations (μM), 0.01 μM (second column so headed), secondary screening of 87 hit compounds (Table S1), compared to vehicle control) 94.5%. For the same molecule, under “Homo sapiens, 72 h, read-out: Invasion rates (%) of each drug’s multiple concentrations (μM), 0.1 μM, secondary screening of 87 hit compounds (Table S1), compared to vehicle control”, the activity at 0.1 µM stood at 94.8%. Moreover, the activity at 1 µM (Homo sapiens, 72 h, read-out: Invasion rates (%) of each drug’s multiple concentrations (μM), 1 μM, secondary screening of 87 hit compounds (Table S1), compared to vehicle control) was 91%. Besides, the activity at 10 µM (Homo sapiens, 72 h, read-out: Invasion rates (%) of each drug’s multiple concentrations (μM), 10 μM, secondary screening of 87 hit compounds (Table S1), compared to vehicle control) was found to be 17.7%.

Take `CN(C)C(=O)c1cc2cnc(Nc3ccc(N4CCNCC4)cn3)nc2n1C1CCCC1` [Ribociclib]: the activity at 0.01 µM is 99.5% under setting [1] and 101% under setting [10]. Further, the activity at 0.1 µM under setting [2] is 97.2%. The activity at 1 µM under setting [3] was determined as 96%. Further, the activity at 10 µM under setting [4] was 30.9%.

What is called inhibition is the relative decrease from the control value, in per cent. For `Cn1c([N+](=O)[O-])cnc1COC(N)=O` [Ronidazole], the activity at 0.01 µM by setting is: under setting [1], 64.2%; under setting [11], 81.8%; under setting [10], 67.3%; under setting [12], 87.5%. Further, the activity at 0.1 µM came to 27.6% under setting [2] and 5.74% under setting [13]. In addition, the activity at 1 µM by setting is: under setting [3], 5.96%; under setting [14], 3.06%. Also, the activity at 10 µM amounted to 5.14% under setting [4] and 2.89% under setting [15]. Besides, the inhibition at 0.1 µM (Homo sapiens, at 0.1 μM, read-out: inhibition of cell invasion) is over 50%.

With `Cc1ncc([N+](=O)[O-])n1CC(C)O` (stereo not shown) [Secnidazole], the activity at 0.01 µM worked out at 94.7% under setting [1] and 96.4% under setting [10]. Besides, the activity at 0.1 µM under setting [2] is 89%. The activity at 1 µM under setting [3] is 82.8%. Moreover, the activity at 10 µM under setting [4] came out at 4.4%.

`COc1ccc2c(O[C@@H]3C[C@H]4C(=O)N[C@]5(C(=O)NS(=O)(=O)C6CC6)C[C@H]5/C=C\CCCCN(C)C(=O)[C@@H]4C3)cc(-c3nc(C(C)C)cs3)nc2c1C` [Simeprevir]: the activity at 0.01 µM was 98.5% under setting [1] and 101% under setting [10]. Besides, the activity at 0.1 µM under setting [2] is 97.2%. The activity at 1 µM under setting [3] came to 96.2%. Moreover, the activity at 10 µM under setting [4] was 38.8%.

As to `CNC(=O)c1cc(Oc2ccc(NC(=O)Nc3ccc(Cl)c(C(F)(F)F)c3)cc2)ccn1` [Sorafenib], the activity at 0.01 µM was determined as 91.9% under setting [1] and 101% under setting [10]. Under setting [2], the activity at 0.1 µM stood at 91.9%. Moreover, under setting [3], the activity at 1 µM amounted to 76.2%. Also, the activity at 10 µM under setting [4] came to 43.3%.

Take `CCN(CC)CCNC(=O)c1c(C)[nH]c(/C=C2\C(=O)Nc3ccc(F)cc32)c1C` [Sunitinib]: the activity at 0.01 µM under setting [1] was 88.6% and the activity at 0.01 µM under setting [10] is 94.9%. Besides, under setting [2], the activity at 0.1 µM stood at 83.7%. In addition, the activity at 1 µM under setting [3] amounted to 61.1%. Besides, under setting [4], the activity at 10 µM was determined as 0.8%.

As for `CC/C(=C(\c1ccccc1)c1ccc(OCCN(C)C)cc1)c1ccccc1.O=C(O)CC(O)(CC(=O)O)C(=O)O` [Tamoxifen (Citrate)], the “Invasion rates (%)” value under setting [5] stood at 94.34%; the “Invasion rates (%)” value under setting [6] came out at 97.97%; the “Invasion rates (%)” value under setting [7] came to 91.22%; the “Invasion rates (%)” value under setting [8] was determined as 85.65%; the “Invasion rates (%)” value under setting [9] is recorded as 1.00%.

As for `CC/C(=C(\c1ccccc1)c1ccc(OCCN(C)C)cc1)c1ccccc1` [Tamoxifen], the activity at 0.01 µM is, setting by setting: under setting [1], 96.2%; under setting [10], 95.4%. Also, under setting [2], the activity at 0.1 µM is 97%. Moreover, the activity at 1 µM under setting [3] was determined as 91.1%. Under setting [4], the activity at 10 µM was 24.3%.

`Cn1nnc(-c2ccc(-c3ccc(N4C[C@H](COP(=O)(O)O)OC4=O)cc3F)cn2)n1` [Tedizolid (phosphate)]: the activity at 0.01 µM was found to be 89% under setting [1], 99.8% under setting [11], 91.7% under setting [10] and 96.1% under setting [12]. In addition, the activity at 0.1 µM under setting [2] stood at 70.7% and the activity at 0.1 µM under setting [13] was found to be 90.7%. In addition, the activity at 1 µM is, setting by setting: under setting [3], 3.59%; under setting [14], 3.28%. Besides, the activity at 10 µM was found to be 3.35% under setting [4] and 2.87% under setting [15].

For the molecule `COc1cc([C@@H]2c3cc4c(cc3[C@@H](O[C@@H]3O[C@@H]5CO[C@@H](c6cccs6)O[C@H]5[C@H](O)[C@H]3O)[C@H]3COC(=O)[C@H]23)OCO4)cc(OC)c1O` [Teniposide], the activity at 0.01 µM worked out at 93.1% under setting [1] and 91.8% under setting [10]. Also, the activity at 0.1 µM under setting [2] worked out at 85%. For the same molecule, the activity at 1 µM under setting [3] turned out to be 77.2%. Also, the activity at 10 µM under setting [4] turned out to be 3.21%.

Take `CN(C)[C@@H]1C(O)=C(C(N)=O)C(=O)[C@@]2(O)C(O)=C3C(=O)c4c(O)cccc4[C@@](C)(O)[C@H]3C[C@@H]12.Cl` [Tetracycline (hydrochloride)]: the “Invasion rates (%)” value under setting [5] was 84.87%; the “Invasion rates (%)” value under setting [6] is 95.46%; the “Invasion rates (%)” value under setting [7] is reported as 83.74%; the “Invasion rates (%)” value under setting [8] stood at 67.27%; the “Invasion rates (%)” value under setting [9] was determined as 2.14%.
